From patent US20140066439A1, “OSTEOCLAST ACTIVITY” (Katholieke Universiteit Leuen, K.U.Leuven R&D, priority 2010, published 2014) come the findings set out here.

Type in all cases: cell-based, human
Assay [1] has as its system PBMCs from critically ill patients. The assay is described as follows: Osteoclast formation (TRAP staining, day 14) in PBMCs from critically ill patients cultured in critically ill patient serum. The following applies: low doses, compounds added d1-d14, TRAP staining at day 14. The text has this:
We have determined that the treatment of patient's peripheral blood mononuclear cell (PBMCs), in particular, PBMCs of critically ill patients with autophagy inducers can be used to suppress enhanced osteoclastogenesis. It turned out that a particular advantage is that such autophagy inducers can be targeted to particularly treat the PBMCs.

Assay [2] relates to Peripheral Blood Mononuclear Cells (PBMCs). Description: Osteoclast formation: TRAP positive multinuclear cells in PBMC cultures. The following applies: for TRAP positive multinuclear cells (osteoclast formation): spermidine 10^-8 M; for spontaneous osteoclast formation: 14 days. The procedure: PBMCs were isolated from the whole blood of patients or healthy volunteers by means of Ficoll-Paque Plus (GE Healthcare, Brussels, Belgium) density gradient centrifugation according to the manufacturer's instructions. Heparinized whole blood (20 ml) was drawn from each individual and diluted 1:1 with alpha minimal essential medium (α-MEM; Lonza, Braine-l'Alleud, Belgium), before being layered over Ficoll-Paque and centrifuged at 450 g for 40 min. The mononuclear cell interface was then removed and washed 3 times with α-MEM. Cells were stored in liquid nitrogen until use and seeded at a density of 5×10^5 cells per well. All cultures were performed in quadruplicate in 16-well culture slides (VWR, Leuven, Belgium) or 16-well BD Biocoat Osteologic Slides (BD Biosciences), and cells were cultured in α-MEM supplemented with 10% FBS, 100 IU/ml penicillin and 100 μg/ml streptomycin (“complete medium”), or complete medium plus M-CSF (25 ng/ml) and RANKL (30 ng/ml). In order to study the effect of circulating factors on osteoclast formation, PBMCs were also grown in α-MEM containing 10% human healthy volunteer serum (HS) or 10% patient serum (PS), in the presence or absence of M-CSF (25 ng/ml) and RANKL (30 ng/ml). For cytokine neutralization experiments, PBMCs were grown in α-MEM/10% PS for 14 days, in the presence of varying concentrations of anti-TNF-α and/or anti-IL-6 (R&D Systems, Abingdon, UK). All cultures were maintained at 37° C. in a humidified atmosphere with 5% CO2.
(§1) After 14 days, PBMCs were fixed and stained for the osteoclast-specific marker tartrate-resistant acid phosphate (TRAP), and the nuclear marker DAPI, as previously described. The formation of TRAP positive multi-nucleated (more than three nuclei) cells was quantified by counting the multi-nuclear stained cells in each well (D'Amelio P, Grimaldi A, Pescarmona G P, Tamone C, Roato I, Isaia G. Spontaneous osteoclast formation from peripheral blood mononuclear cells in postmenopausal osteoporosis. FASEB J. 2005; 19(3):410-2.). Filamentous (F)-actin rings representing active osteoclasts were visualized after staining of the actin cytoskeleton with the toxin phalloidin conjugated to FITC, and quantified by counting, as described above. […] Lacunar resorption was determined by measuring the total area unstained by Von-Kossa (total area resorbed) using ImageJ software (National Institute of Health, MD, USA), and was expressed as the total percentage of the surface reabsorbed. […]

For assay [3] the test system is unchanged. Description: Osteoclast resorption of a hydroxyapatite layer (Von Kossa, ImageJ) by PBMC-derived osteoclasts. The following applies: 14 days; for osteoclast activity (resorption): healthy PBMCs stimulated with RANKL and M-CSF, dose response, 10^-6, 10^-7 and 10^-8 M. How it is done: PBMCs were isolated from the whole blood of patients or healthy volunteers by means of Ficoll-Paque Plus (GE Healthcare, Brussels, Belgium) density gradient centrifugation according to the manufacturer's instructions. Heparinized whole blood (20 ml) was drawn from each individual and diluted 1:1 with alpha minimal essential medium (α-MEM; Lonza, Braine-l'Alleud, Belgium), before being layered over Ficoll-Paque and centrifuged at 450 g for 40 min. The mononuclear cell interface was then removed and washed 3 times with α-MEM. Cells were stored in liquid nitrogen until use and seeded at a density of 5×10^5 cells per well. All cultures were performed in quadruplicate in 16-well culture slides (VWR, Leuven, Belgium) or 16-well BD Biocoat Osteologic Slides (BD Biosciences), and cells were cultured in α-MEM supplemented with 10% FBS, 100 IU/ml penicillin and 100 μg/ml streptomycin (“complete medium”), or complete medium plus M-CSF (25 ng/ml) and RANKL (30 ng/ml). […]
as §1

For another assay, the system named is p62 protein. The assay is described as follows: Autophagy marker p62 protein expression (western blot) in PBMCs/osteoclasts. The following applies: healthy PBMCs, RANKL/MCSF stimulated, spermidine 2×10^-8 M, 14 days. The text has this: We also measured markers of autophagy in the cell lysates from these experiments. The concentration of proteins we obtained were quite low, and there was insufficient protein to measure anything by western blotting in the “sick spermidine” group. […] There was no effect of spermidine on the healthy PBMCs (FIG. 6).
FIG. 6 concerns autophagy marker p62 protein expression in healthy and sick PBMCs/osteoclasts (RANKL/MCSF stimulated) and the effect of spermidine on healthy PBMCs/osteoclasts. Healthy and sick PBMCs were cultured for 14 days with or without spermidine (2×10^−8 M) in 6 well plates (5×10^6 cells/well). After 14 days, protein was extracted using the Ambion PARIS extraction kit (Applied Biosystems), and proteins quantified using the BC Protein Assay (Thermo Fischer Scientific). (A) 5 ug of protein was subjected to 15% Bis-tris gelelectrophoresis, transferred to nitrocellulose membrane and incubated at 4° C. overnight in Anti-p62 (Novus Biologicals; 1:1000). p62 protein was detected by ECL following incubation with AntiMouseIgG (DAKO; 1:1000). GAPDH was used as a loading control. (B) p62 relative expression was quantified with Image QuantTL (Amersham Biosciences) and normalized to GAPDH (n=3; ***p≦0.05 vs. Healthy).
Background: Immunoblotting shows a protein as a band on a membrane.

“Also recorded” adds a separate entry of the source.

Turning to `Nc1ncn([C@@H]2O[C@H](CO)[C@@H](O)[C@H]2O)c(=O)n1` [5-azacytidine], in assay [1], the “critical illness enhanced osteoclast formation” value was “inhibiting effect”.
On to `CC(CN1c2ccccc2Sc2ccccc21)N(C)C` (stereo not drawn) [Promethazine, 10-(2-dimethylaminopropyl)phenothiazine], for which, in assay [1], the “critical illness enhanced osteoclast formation” value is “inhibiting effect”.
For `NCCCCNCCCN` [Spermidine], the “TRAP positive multinuclear cells (osteoclast formation)” value was “did not, however, have a significant effect” in assay [2] (healthy PBMCs stimulated with RANKL and MCSF, day 14); “significant reduction; also recorded: completely blocked” in assay [2] (sick (critically ill) PBMCs stimulated with RANKL and MCSF, day 14, vs control sick PBMCs). The spontaneous osteoclast formation entry in assay [2] (healthy unstimulated (no RANKL or MCSF) PBMCs) was “no effect”; in assay [2] (sick unstimulated (no RANKL or MCSF) PBMCs, increase vs healthy) it was “completely knocked down”. For the same compound, in assay [1], the “critical illness enhanced osteoclast formation” value was “inhibiting effect”. For the same compound, the figures for the “osteoclast activity (resorption)” value in assay [3] and in assay [3] (listed as spermidine) were “reduced” and “inhibits”, respectively. Further, the “osteoclast resorption of hydroxyapatite layer” value in assay [3] (sick stimulated (RANKL/MCSF) PBMCs, increase vs healthy, spermidine 2×10^-8 M) was “reduced; also recorded: completely blocked”. Besides, the p62 protein expression entry with p62 protein is “no effect”.
As to `CO[C@H]1C[C@@H]2CC[C@@H](C)[C@@](O)(O2)C(=O)C(=O)N2CCCC[C@H]2C(=O)O[C@H]([C@H](C)C[C@@H]2CC[C@@H](OCCO)[C@H](OC)C2)CC(=O)[C@H](C)/C=C(\C)[C@@H](O)[C@@H](OC)C(=O)[C@H](C)C[C@H](C)/C=C/C=C/C=C/1C` [Everolimus, 40-O-(2-hydroxyethyl)-rapamycin], the “critical illness enhanced osteoclast formation” value in assay [1] was “inhibiting effect”.
